ChEMBL document CHEMBL5113436, “WCK 4034: A promising oxazolidinone for treating gram positive infections” (Bioorg Med Chem Lett, 2022)
≈ marks a conversion by molar mass, not a printed value.

Columns and labels:
[1] = system: Staphylococcus aureus; assay: Antibacterial activity against Staphylococcus aureus Sta-5027 infected in Swiss mouse model of septicemia administered by oral route 1 h and 5 h post-infection; assay type: functional; conditions: Sta-5027, 168 h, time 7 day
[2] = system: Staphylococcus aureus; assay: Antibacterial activity against methicillin-sensitive Staphylococcus aureus Sta-001 incubated for 18 hrs by CLSI protocol based two-fold serial agar dilution method; assay type: functional
[3] = system: Streptococcus pneumoniae; assay: Antibacterial activity against Streptococcus pneumoniae ATCC 49619 incubated for 18 hrs by CLSI protocol based two-fold serial agar dilution method; assay type: functional
[4] = system: Staphylococcus aureus; assay: Antibacterial activity against methicillin-resistant Staphylococcus aureus Sta-032 incubated for 18 hrs by CLSI protocol based two-fold serial agar dilution method; assay type: functional
[5] = system: Haemophilus influenzae; assay: Antibacterial activity against Haemophilus influenzae […] ATCC 35054 incubated for 18 hrs by CLSI protocol based two-fold serial agar dilution method; assay type: functional
[6] = system: Staphylococcus aureus; assay: Antibacterial activity against Linezolid-resistant Staphylococcus aureus Sta-5059 incubated for 18 hrs by CLSI protocol based two-fold serial agar dilution method; assay type: functional
[7] = system: Staphylococcus aureus; assay: Antibacterial activity against Linezolid-resistant Staphylococcus aureus Sta-5060 incubated for 18 hrs by CLSI protocol based two-fold serial agar dilution method; assay type: functional
[8] = Clearance in Wistar rat at 30 mg/kg, iv; assay type: ADME, organism-based; conditions: in vivo, iv, 30 mg/kg
[9] = Cmax in Wistar rat at 30 mg/kg, iv; assay type: ADME, organism-based; design: dose 30 mg/kg, route iv; conditions: in vivo
[10] = Cmax in Wistar rat at 15 mg/kg, iv; assay type: ADME, organism-based; design: dose 15 mg/kg, route iv; conditions: in vivo
[11] = Clearance in Beagle dog at 15 mg/kg, iv; assay type: ADME, organism-based, Canis lupus familiaris; conditions: in vivo
[12] = Volume of distribution in Wistar rat at 15 mg/kg, iv; assay type: ADME, organism-based; conditions: in vivo
[13] = Clearance in Wistar rat at 15 mg/kg, iv; assay type: ADME, organism-based; conditions: in vivo
[14] = AUC in Beagle dog at 15 mg/kg, iv; assay type: ADME, organism-based, Canis lupus familiaris; design: dose 15 mg/kg, route iv; conditions: in vivo
[15] = Cmax in Beagle dog at 15 mg/kg, iv; assay type: ADME, organism-based, Canis lupus familiaris; design: dose 15 mg/kg, route iv; conditions: in vivo
[16] = Terminal half life in Beagle dog at 15 mg/kg, iv; assay type: ADME, organism-based, Canis lupus familiaris; conditions: in vivo
[17] = AUC in Beagle dog at 15 mg/kg, iv; conditions: in vivo
[18] = Terminal half life in Wistar rat at 30 mg/kg, iv; assay type: ADME, organism-based; conditions: in vivo, iv, 30 mg/kg
[19] = Volume of distribution in Wistar rat at 30 mg/kg, iv; assay type: ADME, organism-based; conditions: in vivo, iv, 30 mg/kg
[20] = AUC in Wistar rat at 15 mg/kg, iv; assay type: ADME, organism-based; design: dose 15 mg/kg, route iv; conditions: in vivo

Row | SMILES | ED50 [1] [mg/kg] | MIC [2] [µg/mL] | MIC [3] [µg/mL] | MIC [4] [µg/mL] | MIC [5] [µg/mL] | other results
1 | CC(=O)NC[C@H]1CN(c2ccc(N3CCC4(OCCO4)C(F)C3)c(F)c2)C(=O)O1 (stereo partly drawn) | 5 | 12.5 (≈ 30.4 µM) | 2 (≈ 4.86 µM) | 4 (≈ 9.72 µM) | – | –
2 | CC(=O)NC[C@H]1CN(c2ccc(N3CCC4(CC3)OCCO4)c(F)c2)C(=O)O1 | 5 | 4 (≈ 10.2 µM) | 4 (≈ 10.2 µM) | 4 (≈ 10.2 µM) | 16 (≈ 40.7 µM) | –
3 | CC(=O)NC[C@H]1CN(c2ccc(N3CCC4(OCCO4)C(C)(C)C3)c(F)c2)C(=O)O1 | – | – | 4 (≈ 9.49 µM) | 12.5 (≈ 29.7 µM) | 2 (≈ 4.75 µM) | –
4 | CC(=O)NC[C@H]1CN(c2ccc(N3CCC4(CC3)NCCS4)c(F)c2)C(=O)O1 | 5 | 4 (≈ 9.79 µM) | 2 (≈ 4.9 µM) | 4 (≈ 9.79 µM) | 8 (≈ 19.6 µM) | –
5 | CC(=O)NC[C@H]1CN(c2ccc(N3CCC4(CC3)COCO4)c(F)c2)C(=O)O1 | 5 | 4 (≈ 10.2 µM) | 2 (≈ 5.08 µM) | 4 (≈ 10.2 µM) | > 16 | –
6 | CS(=O)(=O)OC[C@H]1CN(c2ccc(N3CCC4(OCCO4)C(F)C3)c(F)c2)C(=O)O1 (stereo partly drawn) | > 10 | 12.5 (≈ 27.9 µM) | 4 (≈ 8.92 µM) | 6.25 (≈ 13.9 µM) | – | –
7 | CC(=O)NC[C@H]1CN(c2ccc(N3CCC4(CC3)OCC(C)(C)O4)c(F)c2)C(=O)O1 | > 20 | – | – | 8 (≈ 19 µM) | – | –
8 | CC(=O)NC[C@H]1CN(c2ccc(N3CCC4(CC3)COCCCO4)c(F)c2)C(=O)O1 | 10 | 8 (≈ 19 µM) | 4 (≈ 9.49 µM) | 4 (≈ 9.49 µM) | > 16 | –
9 | CC(=O)NC[C@H]1CN(c2cc(F)c(N3CCC4(OCCO4)C(F)C3)c(F)c2)C(=O)O1 (stereo partly drawn) | < 5 | 2 (≈ 4.66 µM) | > 4 | 2 (≈ 4.66 µM) | 16 (≈ 37.3 µM) | MIC [6]: > 8 µg/mL; MIC [7]: > 8 µg/mL
10 | CC(=O)NC[C@H]1CN(c2ccc(N3CCC4(CC3)OCCCCO4)c(F)c2)C(=O)O1 | – | 16 (≈ 38 µM) | 4 (≈ 9.49 µM) | 16 (≈ 38 µM) | > 16 | –
11 | CC(=O)NC[C@H]1CN(c2ccc(N3CCC4(CC3)OCCS4(=O)=O)c(F)c2)C(=O)O1 | – | > 32 | 2 (≈ 4.53 µM) | > 32 | 16 (≈ 36.2 µM) | –
12 | CC(=O)NC[C@H]1CN(c2ccc(N3CCOCC3)c(F)c2)C(=O)O1 [LINEZOLID] | 2.5 | – | – | – | 4 (≈ 11.9 µM) | CL [8]: 9.33 mL/min/kg; Cmax [9]: 27300 ng/mL; MIC [6]: > 8 µg/mL; Cmax [10]: 8700 ng/mL; CL [11]: 3.17 mL/min/kg; Vd [12]: 0.4 L/kg; MIC [7]: > 8 µg/mL; CL [13]: 34 mL/min/kg; AUC [14]: 19.9 µg·h/kg; Cmax [15]: 1620 ng/mL; beta t1/2 [16]: 1.3 h; AUC [17]: 78200 ng·h/mL; beta t1/2 [18]: 2.23 h; Vd [19]: 17.82 L/kg; AUC [20]: 1.24 µg·h/kg
13 | CC(=O)NC[C@H]1CN(c2ccc(N3CCC4(CC3)CO4)c(F)c2)C(=O)O1 | – | 4 (≈ 11 µM) | 4 (≈ 11 µM) | 4 (≈ 11 µM) | 16 (≈ 44 µM) | –
14 | CC(=O)NC[C@H]1CN(c2ccc(N3CCC4(CC3)OCCS4)c(F)c2)C(=O)O1 | 10 | 4 (≈ 9.77 µM) | 4 (≈ 9.77 µM) | 4 (≈ 9.77 µM) | > 16 | –
15 | CC(=O)NC[C@H]1CN(c2ccc(N3CCC4(CC3)OCC(C)(C)CO4)c(F)c2)C(=O)O1 | – | 16 (≈ 36.7 µM) | 8 (≈ 18.4 µM) | 16 (≈ 36.7 µM) | > 16 | –
